Measurements as given in patent US20240360186A1, “Treatment Of Integrin-Related Disorders With Stapled Peptides” (Institute For Cancer Research d/b/a The Research Institute …, priority 2021, published 2024).
Bridge positions count the residues as written; N and C are the ends. Square brackets hold non-standard residues; d marks the D form. Ends that are not written are not given here. Peptide text beside a SMILES is read from it. S5 = C=CCCC[C@](C)(N)C(=O)O

Legend:
integrin αIIbβ3 [1] = assay: Integrin activation assay, inactive talin head mutant THD-W359A; assay type: cell-based; conditions: CHO-A5 cells transfected with THD-W359A; TBS 100 μM, S-TBS 10 and 100 μM; PAC1 flow cytometry
Experimental: (§1) Assessing integrin activation: CHO-A5 cells were transfected with GFP-tagged talin-head domain (residues 1-430, WT or W359A) and incubated for 24 hours at 37° C. The cells were subsequently treated with WT-TBS at 100 μM or Staple-TBS (at 10 and 100 μM) for 30 minutes at 37° C. and washed twice with PBS, harvested in trypsin-EDTA, and centrifuged at 2,000 rpm for 5 minutes. The cells were incubated in Tyrode's buffer (136.9 mM NaCl, 10 mM HEPES, 5.5 mM glucose, 11.9 mM NaHCO3, 2.7 mM KCl, 0.5 mM CaCl2), 1.5 mM MgCl2, and 0.4 mM NaH2PO4, pH 7.4) containing PAC1 antibody for 1 hour at 30° C. and then stained with Alexa 647 (goat anti-mouse IgM) for 30 minutes at RT. The cells were quantified with an LSR flow cytometer using 30,000 cells per measurement.
(§2) The effect of S-TBS on talin-induced activation of integrin αIIbβ3 was examined. CHO-A5 cells that stably express integrin αIIbβ3 were transfected with a green fluorescent protein-tagged talin head domain, treated with S-TBS or TBS, and then subjected flow cytometry analysis for integrin αIIbβ3 activity. […]
(§3) Integrin activation assays: CHO-A5 cells were transfected with talin-head domain, wild-type or W359A, and incubated for 24 hours at 37° C. […] The cells were quantified with a Beckton, Dickenson & Co. Biosciences LSR flow cytometer (660/20 filter, 640 nm laser) using 30,000 cells per measurement.

HeLa cells = assay: Cell toxicity assay, HeLa; assay type: cell-based; conditions: 40 μM, treated one hour then washed away, viability at 24 and 48 hours
Experimental: (§4) The cell toxicity of the peptides was then examined. HEK, MCF-7, and HeLa were used. Cells were treated with S-TBS 40 μm for one hour. The S-TBS was then washed away and the viability measured at 24 and 48 hours. No impact on HEK, MCF-7, and HeLa cell growth was observed.

HEK-293 cells = assay: Cell toxicity assay, HEK-293; assay type: cell-based; conditions: 40 μM, treated one hour then washed away, viability at 24 and 48 hours
Experimental: as §4

CHO-A5 cells = assay: Cell permeability assay (flow cytometry uptake of fluorophore-labelled peptide); assay type: in vitro ADME; conditions: CHO-A5 cells, lower doses, flow cytometry permeability index, fluorophore-labelled peptides
Experimental: Assessing membrane permeability: CHO-A5 cells were treated with FAM-labelled WT-TBS (1, 10, and 50 μM), or with FITC-labelled stapled-TBS (1, 10, and 50 μM), and incubated for 30 minutes at 37° C. The cells were washed twice with phosphate-buffered saline (PBS), harvested in trypsin-EDTA, and centrifuged at 2,000 rpm for 5 minutes. The cells were resuspended in PBS and quantified with an LSR flow cytometer using 30,000 cells per measurement.
A common challenge for peptidomimetic drugs that target intracellular proteins is the poor cell membrane permeability. To assess the effect of the C8 staple on cell permeability, FITC-labeled S-TBS were incubated with CHO cells at various concentration and examined S-TBS uptake by flow cytometry. […] The assay was then performed using lower doses of peptides and quantified the signals for statistical analyses. […] In contrast, TBS requires a concentration of at least 5 μM for cell uptake (FIG. 3, Panel B).
Cell permeability assay: CHO-A5 cells were plated in 6-well dishes, and then treated with fluorophore labeled TBS or S-TBS peptides at indicated concentrations for 30 minutes at 37° C. The cells were then washed twice with phosphate-buffered saline (PBS), detached by adding a mixture of trypsin and […] (“trypsin-EDTA”) and harvested by spinning at 2,000 rpm for 5 minutes. The cells were resuspended in PBS and quantified with an LSR flow cytometer (525/50 filter, 488 nm laser) using 30,000 cells per measurement.

MCF-7 cells = assay: Cell toxicity assay, MCF-7; assay type: cell-based; conditions: 40 μM, treated one hour then washed away, viability at 24 and 48 hours
Experimental: as §4

integrin αIIbβ3 [2] = assay: Integrin activation assay, wild-type talin head domain; assay type: cell-based; conditions: CHO-A5 cells expressing GFP-tagged wild-type talin head domain; TBS 100 μM, S-TBS 10 and 100 μM, 30 minutes; PAC1 flow cytometry
Experimental: as §1, §2, §3

[3] = system: β3-THD (integrin β3-talin head domain fusion protein); assay: GST pull-down, β3-THD chimera; assay type: binding; conditions: GST-fused peptide on glutathione beads, His-tagged talin protein, Western blot
Excerpt: The interaction of the TBS segment of RIAM with the talin head domain is compatible with the integrin-β:talin interaction (see, Yang et al., Nat. Commun., 2014, 5, 5880). To test this proposed synergistic interaction, a chimeric protein was constructed by fusing a integrin 03 segment to talin head domain (β3-THD) and assessed its interaction with TBS. […] The T14E mutation in TBS is expected to generate anew salt-bridge interaction with talin through the Arg358 residue, which is essential for the interaction of talin and integrin-β3 (FIG. 2, Panel D; see Barsukov et al., J. Biol. Chem., 2003, 278, 31202-09).
Plasmid construction, protein purification, and GST pull-down: Talin R7R8, talin head domain, β3-THD chimera, and GST-TBS were expressed and purified as described previously described (see, Zhang et al., Proc. Natl. Acad. Sci. U.S.A., 2020, 117, 32402-12; and Chang et al., 2014). Point mutations were constructed using a site-directed mutagenesis method. […] The proteins were resolved by SDS-PAGE and detected by Coomassie staining or Western blotting. […] The blots were visualized with the SuperSignal West Pico Chemiluminescent Substrate (Thermo Scientific) and detected using the FluorChem E imager (ProteinSimple).

[4] = target: T1, Talin head domain (residues 1-430) (UniProt P26039 1-430); assay: fluorescence polarization, as the legend of FIG. 9 Panel B prints it (Table 2 prints 116)
T1 construct: range 1-430; also called THD
Experimental: (§5) To assess the binding affinities of S-TBS with talin, the Kd of TBS and S-TBS peptides with talin rod R7R8 and talin head (residues 1-430) were measured using fluorophore-labeled peptides and recombinantly expressed, purified talin proteins by FP assays. […] This gain of affinity may be attributed to the C8 staple as it stabilizes the helical structure of TBS, and the enhanced hydrophobic interaction between S-TBS and talin rod. The enhanced binding of S-TBS to talin further validates the design strategy of using stapled peptides as a potent competitive inhibitor.
(§6) Fluorescent Polarization: Mixtures were prepared of purified talin proteins at a series concentration (R7R8: 0.2 μM to 20 μM; THD/b3-THD: 5 μM to 100 μM), or buffer only, with 20 nM FITC-labeled S-TBS (New England Peptide) in a buffer containing 20 mM HEPES, pH 7.5, 100 mM NaCl, and 2 mM DTT. After five minutes of incubation, 20 μl of the reaction mix was added to individual wells of a 384-well assay plate (Corning) and then measured fluorescence polarization at room temperature using a plate reader. A […] as emission polarization filters. FP signals were normalized against buffer-only background and then fit to a single-site (saturating) binding model using SigmaPlot (Systat Software).

[5] = target: T1, Talin head domain (residues 1-430); assay: fluorescence polarization; fluorophore-labelled peptide, purified talin protein titrated
Experimental: as §5, §6

Talin rod R7R8 domains [6] = target: T2, Talin rod R7R8 domains (UniProt P26039 1357-1653, limits assumed); assay: as above
T2 construct: domain: R7R8; also called talin R7R8; talin rod double-domain R7R8
Experimental: as §5, §6

[7] = target: T1, Talin head domain (residues 1-430); assay: fluorescence polarization; fluorophore-labelled peptide titrated with talin head (residues 1-430)
Experimental: as §5, §6

Talin rod R7R8 domains [8] = target: T2, Talin rod R7R8 domains; assay: fluorescence polarization; fluorophore-labelled peptide titrated with talin R7R8
Experimental: as §5, §6

[9] = target: T1, Talin head domain (residues 1-430); assay: fluorescence polarization; Kd of S-TBS against Kd of TBS
Experimental: as §5, §6

Talin rod R7R8 domains [10] = target: T2, Talin rod R7R8 domains; assay: as above
Experimental: as §5, §6

T1 sequence (P26039 1-430 limits assumed): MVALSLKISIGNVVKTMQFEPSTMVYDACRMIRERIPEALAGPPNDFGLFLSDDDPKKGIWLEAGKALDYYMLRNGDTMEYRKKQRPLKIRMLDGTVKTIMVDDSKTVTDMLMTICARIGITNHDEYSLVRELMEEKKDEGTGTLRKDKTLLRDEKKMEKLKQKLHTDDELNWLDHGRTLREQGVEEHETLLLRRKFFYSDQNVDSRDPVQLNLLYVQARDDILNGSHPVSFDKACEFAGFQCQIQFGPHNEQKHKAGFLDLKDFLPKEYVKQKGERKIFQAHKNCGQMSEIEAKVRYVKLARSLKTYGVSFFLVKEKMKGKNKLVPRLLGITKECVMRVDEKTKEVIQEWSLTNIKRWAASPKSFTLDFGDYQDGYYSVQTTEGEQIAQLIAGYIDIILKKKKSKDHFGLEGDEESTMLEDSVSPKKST
T2 sequence (P26039 1357-1653 limits assumed): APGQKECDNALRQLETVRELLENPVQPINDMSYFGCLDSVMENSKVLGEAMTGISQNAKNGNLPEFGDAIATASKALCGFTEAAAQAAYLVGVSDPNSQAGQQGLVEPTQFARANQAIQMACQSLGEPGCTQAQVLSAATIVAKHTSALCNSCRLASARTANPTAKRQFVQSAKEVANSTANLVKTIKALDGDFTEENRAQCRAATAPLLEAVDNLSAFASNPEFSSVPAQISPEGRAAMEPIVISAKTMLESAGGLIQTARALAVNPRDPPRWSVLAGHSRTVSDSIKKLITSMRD

## CC[C@H](C)[C@H](NC(=O)[C@H](CC(=O)O)NC(=O)[C@H](CCC(=O)O)NC(=O)[C@@H](N)CC(N)=O)C(=O)N[C@@H](CC(=O)O)C(=O)N[C@@H](CCC(N)=O)C(=O)N[C@@H](CCSC)C(=O)N[C@@H](Cc1ccccc1)C(=O)N[C@@H](CO)C(=O)N[C@H](C(=O)N[C@@H](CC(C)C)C(=O)N[C@@H](CC(C)C)C(=O)NCC(=O)N[C@@H](CCC(=O)O)C(=O)N[C@@H](CCSC)C(=O)N[C@@H](CC(=O)O)C(=O)N[C@@H](CC(C)C)C(=O)N[C@@H](CC(C)C)C(=O)N[C@H](C(=O)N[C@@H](CCC(N)=O)C(=O)N[C@@H](CO)C(=O)O)[C@@H](C)O)[C@@H](C)O [TBS, reference compound] (H-NEDIDQMFSTLLGEMDLLTQS-OH; N-terminus and C-terminus assumed)
Integrin αIIbβ3 [1]
  integrin αIIbβ3 activity with inactive talin head THD-W359A: No inhibitory effect
HeLa cells
  cell toxicity (viability / cell growth), HeLa: minimal cell toxicity
HEK-293 cells
  cell toxicity (viability / cell growth), HEK: minimal cell toxicity
CHO-A5 cells
  concentration giving significant cell uptake: at least 5 μM
MCF-7 cells
  cell toxicity (viability / cell growth), MCF-7: minimal cell toxicity
Integrin αIIbβ3 [2]
  integrin αIIbβ3 activity (talin-induced activation): no inhibitory effect
[3]
  interaction with β3-THD (pull-down): much more strongly than with THD alone

B1: TBS peptide (unstapled talin-binding site peptide of RIAM) (peptide)
peptide: NEDIDQMFSTLLGEMDLLTQS
modifications: also: fluorescein (6-FAM) label in some assays
notes: also called WT-TBS; unstapled TBS
[4]
  Kd: 106 µM
[5]
  Kd: 116 µM
Talin rod R7R8 domains [6]
  Kd: 17.7 µM

B2: S-TBS, stapled talin-binding site peptide (Stp(15,19))H2N-NEDIDQMFSTLLGE(S5)DLL(S5)QS-OH (peptide)
peptide: H-NEDIDQMFSTLLGE[S5]DLL[S5]QS-OH
modifications: staple 15-19; also: FITC label in some assays, site not given here
notes: X stands for the non-natural stapling residue (S5); also called stapled TBS; stapled-TBS
[7]
  EC50 (read off the curve): 10 to 20 µM
Talin rod R7R8 domains [8]
  EC50 (read off the curve): ~2 µM
[9]
  fold stronger binding than TBS: 3.5 fold
Talin rod R7R8 domains [10]
  fold stronger binding than TBS: 6 fold
